In ChEMBL document CHEMBL1132067, “Cytotoxic effects of NSL-1406, a new thienopyrimidine derivative, on leukocytes and osteoclasts” (Bioorg Med Chem Lett, 1999):

How the values were obtained:
P388 [1] = assay: Dose giving a 50% decrease in the living cell number (P388 cells); assay type: functional; details: Mus musculus, read-out: LD50 (the source's name)
P388 [2] = assay: Cytotoxicity against P388 cells is the dose giving 50% decrease in the formation of formazan dye; assay type: functional, cell-based; details: Mus musculus
ECV-304 [3] = assay: Dose giving a 50% decrease in the living cell number (ECV-304 cells); assay type: functional; details: Homo sapiens, read-out: LD50 (the source's name)
A-431 [4] = assay: Cytotoxicity against […] cells is the dose giving 50% decrease in the formation of formazan dye; assay type: functional, cell-based; details: Homo sapiens
HL-60 [5] = assay: Dose giving a 50% decrease in the living cell number (HL-60 cells); assay type: functional; details: Homo sapiens, read-out: LD50 (the source's name)
HL-60 [6] = assay: Cytotoxicity against HL-60 cells is the dose giving 50% decrease in the formation of formazan dye; assay type: functional, cell-based; details: Homo sapiens
J774 [7] = assay: Cytotoxicity against J774 cells is the dose giving 50% decrease in the formation of formazan dye; assay type: functional, cell-based; details: Mus musculus
A-431 [8] = assay: Dose giving a 50% decrease in the living cell number ([…] cells); assay type: functional; details: Homo sapiens, read-out: LD50 (the source's name)
J774 [9] = assay: Dose giving a 50% decrease in the living cell number (J774 cells); assay type: functional; details: Mus musculus, read-out: LD50 (the source's name)
ECV-304 [10] = assay: Cytotoxicity against ECV-304 cells is the dose giving 50% decrease in the formation of formazan dye; assay type: functional, cell-based; details: Homo sapiens

Row | Structure (SMILES) | CC50 (P388 [1]) [µM] | IC50 (P388 [2]) [nM] | also measured
1 | Cc1csc2ncnc(NCCC(=O)O)c12 | 250 | 12000 | –
2 | Cc1csc2ncnc(NCCc3ccc(O)cc3)c12 | 86 | 190 | –
3 | Cc1csc2ncnc(Cl)c12 | 490 | 33000 | –
4 | Cc1csc2ncnc(NCCc3ccccc3)c12 | 43 | 29 | –
5 | Cc1csc2ncnc(NCCc3ccc(Cl)cc3)c12 | 35 | 5.2 | CC50 (ECV-304 [3]): 53 µM; IC50 (A-431 [4]): 20 µM; CC50 (HL-60 [5]): 67 µM; IC50 (HL-60 [6]): 8.5 nM; IC50 (J774 [7]): 5 nM; CC50 (A-431 [8]): 51 µM; CC50 (J774 [9]): 43 µM; IC50 (ECV-304 [10]): 34 µM
6 | Cc1csc2ncnc(NCCc3ccc(F)cc3)c12 | 68 | 29 | –
7 | Cc1csc2ncnc(NCCc3ccc(Br)cc3)c12 | 58 | 1.1 | –
8 | Clc1ccc(CCNc2ncnc3sccc23)cc1 | 73 | 35 | –
9 | Cc1csc2ncnc(NCc3ccc(Cl)cc3)c12 | 74 | 170 | –
10 | Clc1ccc(CCNc2[nH]cnc3ncnc2-3)cc1 | 96 | 7300 | –
11 | Cc1csc2ncnc(NCCCc3ccc(Cl)cc3)c12 | 98 | 1300 | –
12 | CCCNc1ncnc2scc(C)c12 | 85 | 5500 | –
13 | COc1ccc(CCNc2ncnc3scc(C)c23)cc1 | 46 | 7.4 | –
14 | Clc1ccc(CCNc2ncnc3ccsc23)cc1 | 41 | 29 | –
15 | Cc1csc2ncnc(NCCc3ccc(N)cc3)c12 | 39 | 22 | –
